One assay addresses Histamine H3 receptor (Homo sapiens, UniProt Q9Y5N1).
Assay [1] addresses Voltage-gated inwardly rectifying potassium channel KCNH2 (Homo sapiens, UniProt Q12809). Format: functional. The settings on record: read-out: AC50.
Assay [2] concerns the target 5-hydroxytryptamine receptor 2B (Homo sapiens, UniProt P41595). It is filed as functional, cell-based.
Assay [3] addresses Delta-type opioid receptor (Homo sapiens, UniProt P41143).
Assay [4] has as its target T1, 5-hydroxytryptamine receptor 2C (Homo sapiens, UniProt P28335).
T1 sequence (P28335 whole entry): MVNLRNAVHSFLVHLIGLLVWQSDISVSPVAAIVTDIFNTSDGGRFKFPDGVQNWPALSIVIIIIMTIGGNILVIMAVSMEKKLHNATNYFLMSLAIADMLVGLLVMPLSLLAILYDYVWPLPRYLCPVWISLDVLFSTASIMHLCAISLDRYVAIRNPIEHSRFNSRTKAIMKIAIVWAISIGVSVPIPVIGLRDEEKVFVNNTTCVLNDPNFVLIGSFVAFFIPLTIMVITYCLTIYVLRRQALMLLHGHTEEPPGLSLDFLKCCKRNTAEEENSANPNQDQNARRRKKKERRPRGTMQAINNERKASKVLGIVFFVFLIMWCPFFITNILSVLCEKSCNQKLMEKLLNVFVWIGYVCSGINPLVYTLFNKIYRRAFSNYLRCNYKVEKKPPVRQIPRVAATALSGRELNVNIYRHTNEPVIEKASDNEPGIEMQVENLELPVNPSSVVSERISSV

Assay [5] concerns the target T2, Alpha-2C adrenergic receptor (Homo sapiens, UniProt P18825).
T2 sequence (P18825 whole entry): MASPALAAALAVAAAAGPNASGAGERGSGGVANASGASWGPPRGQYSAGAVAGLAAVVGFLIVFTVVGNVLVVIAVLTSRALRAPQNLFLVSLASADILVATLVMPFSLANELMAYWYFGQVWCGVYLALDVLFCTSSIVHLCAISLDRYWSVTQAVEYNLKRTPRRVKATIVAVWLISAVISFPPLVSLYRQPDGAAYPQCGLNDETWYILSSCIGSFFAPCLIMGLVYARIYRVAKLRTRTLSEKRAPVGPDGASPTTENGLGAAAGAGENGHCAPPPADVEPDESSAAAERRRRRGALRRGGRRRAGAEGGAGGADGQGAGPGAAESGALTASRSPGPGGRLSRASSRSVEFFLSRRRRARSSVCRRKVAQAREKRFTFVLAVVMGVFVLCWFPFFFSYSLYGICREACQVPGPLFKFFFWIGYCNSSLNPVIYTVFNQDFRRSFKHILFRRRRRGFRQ
It is filed as functional.

For a further assay, the target named is Vasopressin V1a receptor (Homo sapiens, UniProt P37288).
Assay [6] addresses T3, Muscarinic acetylcholine receptor M2 (Homo sapiens, UniProt P08172).
T3 sequence (P08172 whole entry): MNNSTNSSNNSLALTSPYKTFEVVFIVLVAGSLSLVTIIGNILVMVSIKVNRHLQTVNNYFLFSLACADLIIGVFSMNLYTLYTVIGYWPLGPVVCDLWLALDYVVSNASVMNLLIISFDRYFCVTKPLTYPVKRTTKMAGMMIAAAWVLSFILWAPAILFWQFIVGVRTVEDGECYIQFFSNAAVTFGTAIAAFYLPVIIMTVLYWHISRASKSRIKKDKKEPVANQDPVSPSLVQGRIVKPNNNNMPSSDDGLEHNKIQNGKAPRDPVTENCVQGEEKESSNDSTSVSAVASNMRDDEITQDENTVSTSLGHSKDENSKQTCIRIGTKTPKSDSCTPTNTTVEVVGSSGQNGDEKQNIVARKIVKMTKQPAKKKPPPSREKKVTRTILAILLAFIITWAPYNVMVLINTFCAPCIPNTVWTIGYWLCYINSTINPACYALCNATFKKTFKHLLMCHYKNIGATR
Format: functional, cell-based.

The target of assay [7] is Kappa-type opioid receptor (Homo sapiens, UniProt P41145).
Assay [8] concerns the target Sodium-dependent dopamine transporter (Homo sapiens, UniProt Q01959).
Assay [9] has as its target T4, Neuropeptide Y receptor type 1 (Homo sapiens, UniProt P25929).
T4 sequence (P25929 whole entry): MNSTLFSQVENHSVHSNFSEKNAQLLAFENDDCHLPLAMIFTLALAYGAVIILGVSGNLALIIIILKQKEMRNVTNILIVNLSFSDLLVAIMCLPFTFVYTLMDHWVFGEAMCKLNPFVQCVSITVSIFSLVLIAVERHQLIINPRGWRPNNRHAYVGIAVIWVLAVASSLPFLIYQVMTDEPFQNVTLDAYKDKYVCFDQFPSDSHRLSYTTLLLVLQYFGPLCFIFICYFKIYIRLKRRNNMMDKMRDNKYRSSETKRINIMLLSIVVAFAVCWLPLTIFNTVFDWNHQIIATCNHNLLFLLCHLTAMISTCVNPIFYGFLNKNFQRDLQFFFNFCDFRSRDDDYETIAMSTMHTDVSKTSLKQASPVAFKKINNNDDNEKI

Assay [10] has as its target T5, Muscarinic acetylcholine receptor M1 (Homo sapiens, UniProt P11229).
T5 sequence (P11229 whole entry): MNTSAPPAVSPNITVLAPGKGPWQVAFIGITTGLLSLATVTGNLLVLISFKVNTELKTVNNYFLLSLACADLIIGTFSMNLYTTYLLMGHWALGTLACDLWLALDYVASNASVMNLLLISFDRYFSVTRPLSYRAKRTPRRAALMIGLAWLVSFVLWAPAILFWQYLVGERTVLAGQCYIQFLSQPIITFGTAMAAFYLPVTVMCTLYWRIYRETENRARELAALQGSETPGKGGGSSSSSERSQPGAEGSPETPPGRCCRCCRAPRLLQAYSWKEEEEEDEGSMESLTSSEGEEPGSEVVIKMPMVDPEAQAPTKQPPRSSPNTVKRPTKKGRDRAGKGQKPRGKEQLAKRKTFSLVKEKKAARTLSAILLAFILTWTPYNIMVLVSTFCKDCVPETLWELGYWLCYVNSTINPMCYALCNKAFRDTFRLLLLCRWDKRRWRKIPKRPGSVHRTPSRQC
It is filed as functional.

SMILES strings stand for the structures. Bounds are passed on as bounds.

The term AC50 denotes the concentration giving half of the maximal activity seen.
Also: assay procedure not described here.

Sequence of Sodium-dependent dopamine transporter (Q01959 whole entry): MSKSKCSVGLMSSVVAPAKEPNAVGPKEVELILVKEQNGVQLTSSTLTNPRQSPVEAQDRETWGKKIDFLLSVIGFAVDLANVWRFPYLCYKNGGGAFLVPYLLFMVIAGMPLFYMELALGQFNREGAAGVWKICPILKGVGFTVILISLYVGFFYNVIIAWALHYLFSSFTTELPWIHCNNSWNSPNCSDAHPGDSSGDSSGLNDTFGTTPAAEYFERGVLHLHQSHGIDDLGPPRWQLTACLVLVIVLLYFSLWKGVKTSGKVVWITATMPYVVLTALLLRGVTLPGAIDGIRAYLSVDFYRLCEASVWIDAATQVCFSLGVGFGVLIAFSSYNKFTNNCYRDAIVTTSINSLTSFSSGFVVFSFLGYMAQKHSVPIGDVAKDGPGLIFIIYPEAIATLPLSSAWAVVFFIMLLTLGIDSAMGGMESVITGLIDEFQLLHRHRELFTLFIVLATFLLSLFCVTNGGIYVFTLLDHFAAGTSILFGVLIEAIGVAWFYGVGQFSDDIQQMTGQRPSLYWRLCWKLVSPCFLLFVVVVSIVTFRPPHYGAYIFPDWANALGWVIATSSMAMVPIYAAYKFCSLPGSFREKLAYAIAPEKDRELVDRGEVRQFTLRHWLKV
Sequence of Delta-type opioid receptor (P41143 whole entry): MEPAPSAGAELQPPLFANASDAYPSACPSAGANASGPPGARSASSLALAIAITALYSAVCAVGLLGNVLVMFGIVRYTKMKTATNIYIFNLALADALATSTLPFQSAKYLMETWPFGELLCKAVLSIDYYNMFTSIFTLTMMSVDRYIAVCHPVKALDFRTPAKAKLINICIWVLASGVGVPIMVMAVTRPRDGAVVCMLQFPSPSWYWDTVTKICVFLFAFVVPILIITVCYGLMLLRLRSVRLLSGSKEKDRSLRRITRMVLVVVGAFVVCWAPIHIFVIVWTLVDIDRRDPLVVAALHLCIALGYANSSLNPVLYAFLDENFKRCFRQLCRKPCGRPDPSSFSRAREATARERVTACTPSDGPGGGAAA
Sequence of Histamine H3 receptor (Q9Y5N1 whole entry): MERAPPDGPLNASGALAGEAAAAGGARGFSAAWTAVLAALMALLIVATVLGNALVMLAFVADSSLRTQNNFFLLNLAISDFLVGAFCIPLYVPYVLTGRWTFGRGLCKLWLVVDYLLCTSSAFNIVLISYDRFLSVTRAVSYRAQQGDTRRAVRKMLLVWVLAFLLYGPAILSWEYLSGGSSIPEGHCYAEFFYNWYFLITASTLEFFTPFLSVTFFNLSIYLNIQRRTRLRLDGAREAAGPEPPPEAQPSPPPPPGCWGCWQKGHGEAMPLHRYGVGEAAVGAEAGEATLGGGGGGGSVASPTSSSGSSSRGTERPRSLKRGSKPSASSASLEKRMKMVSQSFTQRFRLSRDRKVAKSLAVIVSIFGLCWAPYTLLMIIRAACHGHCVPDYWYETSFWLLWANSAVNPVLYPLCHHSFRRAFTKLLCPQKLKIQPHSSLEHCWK
Sequence of Kappa-type opioid receptor (P41145 whole entry): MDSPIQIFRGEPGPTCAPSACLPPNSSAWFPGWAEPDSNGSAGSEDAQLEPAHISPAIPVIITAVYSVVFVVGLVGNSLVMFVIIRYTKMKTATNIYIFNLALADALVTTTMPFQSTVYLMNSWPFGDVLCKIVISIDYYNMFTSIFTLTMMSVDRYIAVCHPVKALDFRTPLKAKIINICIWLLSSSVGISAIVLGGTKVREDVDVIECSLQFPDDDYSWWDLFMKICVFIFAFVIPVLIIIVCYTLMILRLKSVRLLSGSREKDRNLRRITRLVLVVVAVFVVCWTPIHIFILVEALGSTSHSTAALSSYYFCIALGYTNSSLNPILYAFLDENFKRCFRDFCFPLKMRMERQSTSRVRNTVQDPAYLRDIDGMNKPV
Sequence of Vasopressin V1a receptor (P37288 whole entry): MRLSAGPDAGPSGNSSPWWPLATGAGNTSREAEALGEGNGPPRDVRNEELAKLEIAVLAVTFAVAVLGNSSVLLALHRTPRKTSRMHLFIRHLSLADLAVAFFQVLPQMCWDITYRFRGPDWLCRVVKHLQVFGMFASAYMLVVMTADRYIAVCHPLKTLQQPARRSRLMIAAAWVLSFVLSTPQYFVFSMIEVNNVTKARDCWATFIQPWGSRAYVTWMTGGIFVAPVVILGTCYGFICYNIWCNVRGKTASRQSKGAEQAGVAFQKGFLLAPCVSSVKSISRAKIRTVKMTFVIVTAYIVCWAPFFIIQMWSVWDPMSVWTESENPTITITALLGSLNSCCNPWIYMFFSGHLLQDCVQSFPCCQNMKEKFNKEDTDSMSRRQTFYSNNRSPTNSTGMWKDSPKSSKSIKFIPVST
Sequence of Voltage-gated inwardly rectifying potassium channel KCNH2 (Q12809 whole entry): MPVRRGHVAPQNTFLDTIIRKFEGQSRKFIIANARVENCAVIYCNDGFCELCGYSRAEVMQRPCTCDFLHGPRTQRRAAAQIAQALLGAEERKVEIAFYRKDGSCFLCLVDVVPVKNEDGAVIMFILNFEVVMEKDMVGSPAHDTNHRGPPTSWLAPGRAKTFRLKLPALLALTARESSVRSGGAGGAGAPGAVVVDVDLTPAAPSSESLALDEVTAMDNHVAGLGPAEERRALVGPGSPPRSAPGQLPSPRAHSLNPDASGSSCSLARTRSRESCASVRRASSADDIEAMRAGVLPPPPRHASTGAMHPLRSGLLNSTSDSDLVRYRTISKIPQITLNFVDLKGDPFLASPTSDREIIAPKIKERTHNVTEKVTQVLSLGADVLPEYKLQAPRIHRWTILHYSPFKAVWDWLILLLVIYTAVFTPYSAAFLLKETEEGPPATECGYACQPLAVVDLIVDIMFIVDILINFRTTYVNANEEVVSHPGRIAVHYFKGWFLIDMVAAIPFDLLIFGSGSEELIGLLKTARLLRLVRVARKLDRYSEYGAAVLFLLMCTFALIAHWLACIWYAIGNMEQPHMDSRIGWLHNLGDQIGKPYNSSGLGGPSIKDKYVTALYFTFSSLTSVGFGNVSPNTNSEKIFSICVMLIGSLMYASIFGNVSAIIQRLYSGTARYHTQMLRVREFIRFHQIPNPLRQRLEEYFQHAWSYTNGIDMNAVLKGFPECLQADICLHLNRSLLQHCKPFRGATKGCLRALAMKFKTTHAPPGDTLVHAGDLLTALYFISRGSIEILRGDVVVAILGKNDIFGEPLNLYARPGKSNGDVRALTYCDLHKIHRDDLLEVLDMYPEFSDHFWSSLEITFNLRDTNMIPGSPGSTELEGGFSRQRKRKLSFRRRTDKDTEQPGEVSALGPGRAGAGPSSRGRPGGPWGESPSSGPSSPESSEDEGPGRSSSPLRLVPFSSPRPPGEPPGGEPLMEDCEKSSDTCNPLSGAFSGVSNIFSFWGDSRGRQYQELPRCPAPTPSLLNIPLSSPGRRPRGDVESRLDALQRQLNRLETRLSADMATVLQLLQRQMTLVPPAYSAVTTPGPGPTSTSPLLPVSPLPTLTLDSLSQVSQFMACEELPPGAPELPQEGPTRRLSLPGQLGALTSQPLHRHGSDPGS
Sequence of 5-hydroxytryptamine receptor 2B (P41595 whole entry): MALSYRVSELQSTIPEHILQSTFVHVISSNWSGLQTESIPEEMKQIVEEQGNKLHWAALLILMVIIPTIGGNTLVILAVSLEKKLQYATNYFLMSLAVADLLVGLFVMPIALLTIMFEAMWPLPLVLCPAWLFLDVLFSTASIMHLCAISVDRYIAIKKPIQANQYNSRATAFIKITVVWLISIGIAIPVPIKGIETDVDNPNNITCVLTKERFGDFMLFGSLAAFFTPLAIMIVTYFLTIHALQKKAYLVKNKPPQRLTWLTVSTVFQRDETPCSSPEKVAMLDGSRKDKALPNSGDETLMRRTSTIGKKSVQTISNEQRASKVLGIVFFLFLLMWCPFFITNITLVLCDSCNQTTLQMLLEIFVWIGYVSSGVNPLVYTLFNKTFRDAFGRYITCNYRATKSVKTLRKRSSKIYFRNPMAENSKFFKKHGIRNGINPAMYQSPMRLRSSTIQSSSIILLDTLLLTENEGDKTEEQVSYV

`Cc1c(Cl)cccc1Nc1ccccc1C(=O)O` [TOLFENAMIC ACID]: the AC50 (on Histamine H3 receptor; in [1]; in assay [2]; in [3]; in [4]; in assay [5]) was more than 30 µM in each case. For the same compound, the AC50 (on Vasopressin V1a receptor; in assay [6]; in assay [7]; in assay [8]; in assay [9]; in assay [10]) was more than 30 µM throughout.
Turning to `C1=Cc2cccc(OCC3CNCCO3)c2C1` (configuration not stated) [INDELOXAZINE], the AC50 was more than 30 µM at Histamine H3 receptor; more than 30 µM in [1]; more than 30 µM in assay [2]; 22 µM in assay [3]; more than 10 µM in assay [4]; more than 30 µM in [5]. The AC50 on Vasopressin V1a receptor is more than 30 µM; in [6], more than 30 µM; in assay [7], 25 µM; in assay [8], 12 µM; in [9] it was more than 30 µM; in assay [10], more than 30 µM.
As for `C#CCN[C@@H]1CCc2ccccc21` [RASAGILINE], the AC50 was more than 30 µM on Histamine H3 receptor; more than 30 µM in assay [1]; more than 30 µM in [2]; more than 30 µM in [3]; more than 30 µM in assay [4]; 21 µM in [5]. For the same compound, the AC50 (on Vasopressin V1a receptor; in assay [6]; in assay [7]; in [8]; in assay [9]; in [10]) was more than 30 µM each time.
Consider `COc1ccc(C(=O)NCc2ccc(OCCN(C)C)cc2)cc1OC` [ITOPRIDE], for which the AC50 at Histamine H3 receptor was 19 µM; in assay [1], more than 30 µM; in assay [2] it was more than 30 µM; in [3], more than 30 µM; in [4] it was more than 30 µM; in assay [5], more than 30 µM. In addition, the AC50 (at Vasopressin V1a receptor; in assay [6]; in [7]; in assay [8]; in assay [9]; in assay [10]) was more than 30 µM in each case.
In the case of `C#CC1(OC(N)=O)CCCCC1` [ETHINAMATE], the AC50 at Histamine H3 receptor was more than 10 µM; in assay [1], more than 30 µM; in assay [2] it was more than 10 µM; in assay [3] it was more than 30 µM; in assay [4] it was more than 30 µM; in assay [5], more than 10 µM. Further, the AC50 (on Vasopressin V1a receptor; in assay [6]; in assay [7]; in [8]; in assay [9]; in assay [10]) was more than 10 µM each time.
With `CCOC(=O)[C@H](CCc1ccccc1)N[C@H]1CCCN2CCC[C@@H](C(=O)O)N2C1=O` [CILAZAPRIL], the AC50 (on Histamine H3 receptor; in [1]; in assay [2]; in assay [3]; in assay [4]; in assay [5]) was more than 30 µM throughout. The concentration at half-maximal activity (AC50) (on Vasopressin V1a receptor; in [6]; in [7]; in assay [8]; in assay [9]; in assay [10]) was more than 30 µM in each case.
On to `CN[C@@H](C)[C@H](O)c1ccccc1` [EPHEDRINE], for which the AC50 at Histamine H3 receptor was more than 10 µM; in [1] it was more than 30 µM; in assay [2], more than 10 µM; in assay [3], more than 30 µM; in assay [4], more than 30 µM; in assay [5], more than 10 µM. Also, the AC50 on Vasopressin V1a receptor is more than 10 µM; in assay [6], 17 µM; in assay [7], more than 10 µM; in assay [8] it was more than 10 µM; in assay [9], more than 30 µM; in [10], more than 10 µM.
Consider `[H]/N=C(/N)c1ccc(NCc2nc3cc(C(=O)N(CCC(=O)O)c4ccccn4)ccc3n2C)cc1` [DABIGATRAN], for which the AC50 (at Histamine H3 receptor; in assay [1]; in [2]; in assay [3]; in assay [4]; in assay [5]) was more than 30 µM throughout. Also, the AC50 (at Vasopressin V1a receptor; in assay [6]; in assay [7]; in [8]; in assay [9]; in assay [10]) was more than 30 µM each time.
As for `CN(C)C(=O)OC1N=C(c2ccccc2)c2cc(Cl)ccc2N(C)C1=O` (configuration not stated) [CAMAZEPAM], the AC50 was more than 10 µM on Histamine H3 receptor; more than 30 µM in [1]; more than 10 µM in assay [2]; more than 10 µM in assay [3]; more than 30 µM in assay [4]; more than 10 µM in assay [5]. The AC50 was more than 10 µM at Vasopressin V1a receptor; more than 10 µM in [6]; more than 10 µM in [7]; more than 10 µM in assay [8]; more than 30 µM in [9]; more than 10 µM in assay [10].
Take `CCCCCOC(=O)Nc1nc(=O)n([C@@H]2O[C@H](C)[C@@H](O)[C@H]2O)cc1F` [CAPECITABINE]: the AC50 (at Histamine H3 receptor; in assay [1]; in assay [2]; in assay [3]; in assay [4]; in [5]) was more than 30 µM throughout. Besides, the AC50 (on Vasopressin V1a receptor; in [6]; in assay [7]; in assay [8]; in assay [9]; in assay [10]) was more than 30 µM each time.
`O=C(C[S+]([O-])C(c1ccccc1)c1ccccc1)NO` (configuration not stated): the AC50 (at Histamine H3 receptor; in [1]; in assay [2]; in [3]; in assay [4]; in assay [5]) was more than 30 µM each time. The AC50 on Vasopressin V1a receptor is more than 30 µM; in assay [6], more than 30 µM; in assay [7], more than 30 µM; in assay [8], 9.4 µM; in assay [9], more than 30 µM; in assay [10], more than 30 µM.

(Values after ChEMBL document CHEMBL5291721, “A preclinical secondary pharmacology resource illuminates target-adverse drug reaction associations of marketed drugs” (Nat Commun, 2023).)
